Test results as given in patent publication US20100111992A1, “CYTOM[…] AND METHODS OF USE THEREOF” (THE REGENTS OF THE UNIVERSITY OF CALIFORNIA, priority 2006, published 2010).

Columns and labels:
Format in all cases: cell-based, human
enriched CD4 cells = assay: Intracellular TNFα in CD4 cells (FACS); settings: for immunogenicity (reflected by increased TNFα), CMV-infected subject vs healthy CMV+ subject: Donor CMV001 vs Donor BB008, FIG. 7; for TNFα synthesis as compared to control: FIG. 4, donors SA005 and SA006, in words; for TNFα stimulation (FACS data): over multiple HLA-type donors; for immunogenicity reflected by TNFα: six donors
Experimental: (§1) These experiments focus on confirming the in vitro recognition of the novel class I and class II CMV epitopes predicted to be strong MHC binders by validated computer algorithms using T cells from CMV-positive healthy donors. Phenotypical analysis of CD4+ T cell effectors included a marker of activation (CD69) as well as T cell inflammatory cytokines (TNFα, IFNγ, and IL-2). Functional analysis of CD4+ and CD8+ T cell effectors was measured by proliferative epitope-specific responses via ^3H incorporation and IFNγ expression measured by ELISA, respectively.
In addition, these cells are all chemokine receptor CCR7 negative, reflecting their T effector status.
Enriched CD4 cells are incubated with peptide-pulsed irradiated autologous peripheral blood mononuclear cells, restimulated with peptide on day 7, stimulated with low-dose IL-2 (20 U/ml) on day 10 and 14, and then evaluated for intracellular cytokine production on day 17.

[1] = system: CD4+ induced cells (antigen-stimulated T effector cells); assay: Proliferation assay of CD4+ induced cells (3H incorporation); settings: for stimulation index: as compared to cells without peptide
Experimental: as §1
Wells are then pulsed with 1 μCi of ^3H for the last 18 hours. Proliferation is then measured by calculating the absorption of ^3H on a beta counter. PHA is a positive control while APCs alone are the negative control. This translates into stimulation indices of 30 and 45.8 in antigen-specific proliferation assays as compared to cells without peptide.
Antigen-stimulated T effector cells are incubated with autologous, irradiated total peripheral blood mononuclear cells for 96 hours. Wells are pulsed with 1 μCi of ^3H for the last 18 hours. Proliferation is then measured by calculating the absorption of ^3H on a beta counter. APCs alone are the negative control.
Data from the six donors SA001, SA005, SA006, BB006, BB008, CMV001, BB011, and BB013 are shown. No peptide versus 3DR (P<0.001); no peptide versus 4DR (P<0.05); 1DR versus 3DR (P<0.05); 2DR versus 3DR (P<0.01); and 3DR versus 6DR (P<0.05).

CD4+ T cell effectors = assay: IFNg in CD4 cells (FACS); settings: for immunogenicity (reflected by increased IFNg), CMV-infected subject vs healthy CMV+ subject: Donor CMV001 vs Donor BB008, FIG. 8; for IFNg stimulation (FACS data): over multiple HLA-type donors; for immunogenicity reflected by IFNg: six donors
Experimental: as §1

PD-1 = PD-1 Taqman; settings: for ΔCT (BB008) / ΔΔCT(BB008): Donor BB008; for ΔCT (BB008): No Pep 6.4; for ΔΔCT(BB008) / ΔΔCT(BB011) / ΔΔCT(BB013) / ΔΔCT(CMV001): relative to No Pep; for ΔCT (BB011) / ΔΔCT(BB011): Donor BB011; for ΔCT (BB011): No Pep 3.57; for ΔCT(BB013) / ΔΔCT(BB013): Donor BB013; for ΔCT(BB013): No Pep 4.745; for ΔCT(CMV001) / ΔΔCT(CMV001): Donor CMV001; for ΔCT(CMV001): No Pep 5.08
enriched CD4+ cells = assay: Intracellular IL-2 expression in enriched CD4+ cells; settings: for expression of IL-2 as compared to no peptide: FIG. 2, in words; for expression of IL-2 in CD4+ cells: FIG. 2, day 17, cells without peptide 3.18%
Experimental: as §1
Enriched CD4+ cells are incubated with peptide-pulsed irradiated autologous PBMCs, restimulated with peptide on day 7, stimulated with low-dose IL-2 (20 U/ml) on day 9, and then evaluated for intracellular cytokine production on day 17. FIG. 2A illustrates no peptide, while FIGS. 2B and 2C show stimulation by peptides 1DR and 4DR, respectively.

[2] = system: PD-1 (programmed cell death-1); assay: Surface expression of PD-1; settings: Donor CMV001 vs Donor BB008, FIG. 9
From the text: This correlates with latency versus infection in the two subjects.

PD-L2 (a PD-1 ligand) = assay: Surface expression of PD-L2; settings: Donor CMV001 vs Donor BB008, FIG. 11
PD-L1 (a PD-1 ligand) = assay: Surface expression of PD-L1; settings: Donor CMV001 vs Donor BB008, FIG. 10
CD8+ T cell effectors = assay: IFNγ expression measured by ELISA, CD8+ T cell effectors (class I peptides)
Experimental: As such, these experiments focus on confirming that the in vitro recognition of the novel class I and class II CMV epitopes predicted to be strong MHC binders by validated computer algorithms using T cells from CMV-positive healthy donors. Phenotypical analysis of CD4+ T cell effectors included a marker of activation (CD69) as well as T cell inflammatory cytokines (TNFα, IFNγ, and IL-2). Functional analysis of CD4+ and CD8+ T cell effectors was measured by proliferative epitope-specific responses via ^3H incorporation and IFNγ expression measured by ELISA, respectively.
as §1

[3] = excluding CMV-infected subject (CMV001), FIG. 12
[4] = including CMV-infected subject (CMV001), FIG. 13
[5] = FIG. 1, 96 hours with autologous irradiated PBMCs, 3H last 18 hours

Sequence	immunogenicity (reflected by increased TNFα), CMV-infected subject vs healthy CMV+ subject (enriched CD4 cells)	TNFα stimulation (FACS data) (enriched CD4 cells)	immunogenicity reflected by TNFα (enriched CD4 cells; [3])	immunogenicity (reflected by increased IFNg), CMV-infected subject vs healthy CMV+ subject (CD4+ T cell effectors)	IFNg stimulation (FACS data) (CD4+ T cell effectors)	immunogenicity reflected by IFNg (CD4+ T cell effectors; [3])	ΔCT (BB008) (PD-1)	ΔΔCT(BB008) (PD-1)	ΔCT (BB011) (PD-1)	ΔΔCT(BB011) (PD-1)	ΔCT(BB013) (PD-1)	ΔΔCT(BB013) (PD-1)	ΔCT(CMV001) (PD-1)	ΔΔCT(CMV001) (PD-1)	surface expression of PD-1, CMV-infected subject vs healthy CMV+ subject [2]	surface expression of PD-L2, CMV-infected subject vs healthy CMV+ subject (PD-L2 (a PD-1 ligand))	surface expression of PD-L1, CMV-infected subject vs healthy CMV+ subject (PD-L1 (a PD-1 ligand))	other results
MSIYVYALPLKMLNI [1DR, human CMV pp65-derived class II peptide, Human (DRB1)]	greater than in a healthy CMV+ subject	peptide-specific TNFα and IFNg stimulation	increased TNFα and IFNg	greater than in a healthy CMV+ subject	peptide-specific TNFα and IFNg stimulation	increased TNFα and IFNg	5.385	−1.015	3.67	0.1	5.74	0.995	3.635	−1.445	more surface expression of PD-1	more surface expression of PD-L2	more surface expression of PD-L1	TNFα synthesis as compared to control (enriched CD4 cells): stimulate TNFα synthesis; expression of TNFα in CD4 cells (enriched CD4 cells; donor SA005): 15.9%; immunogenicity reflected by TNFα (enriched CD4 cells; [4]): increased TNFα and IFNg; proliferation, counts per minute [1, 5]: 10,201 cpm; stimulation index ([1]; FIG. 1): 30; immunogenicity reflected by IFNg (CD4+ T cell effectors; [4]): increased TNFα and IFNg; expression of IL-2 as compared to no peptide (enriched CD4+ cells): stimulate expression of IL-2; expression of IL-2 in CD4+ cells (enriched CD4+ cells): 39.58%
SGKLFMHVTLGSDVE [5DR, human CMV pp65-derived class II peptide, Human (DRB1)]	–	–	–	–	–	–	6.26	−0.14	3.97	0.4	6.73	1.985	3.53	−1.55	–	more surface expression of PD-L2	more surface expression of PD-L1	–
MISVLGPISGHVLKA [2DR, human CMV pp65-derived class II peptide, Human (DRB1)]	–	–	–	–	–	–	5.525	−0.875	2.94	−0.63	5.26	0.515	5.005	−0.075	–	–	–	–
YTSAFVFPT [CMV65182-190, human CMV pp65-derived class I peptide, Human (A2)]	–	–	–	–	–	–	–	–	–	–	–	–	–	–	–	–	–	immunogenicity among the class I peptides (CD8+ T cell effectors; IFNγ ELISA): most immunogenic; IFNγ measured by ELISA (mean) (CD8+ T cell effectors; class I peptides, T cells from CMV-positive healthy donors): 1999 pg/mL
DVYYTSAFVFPTKDV [4DR]	greater than in a healthy CMV+ subject	peptide-specific TNFα and IFNg stimulation	increased TNFα and IFNg	greater than in a healthy CMV+ subject	peptide-specific TNFα and IFNg stimulation	increased TNFα and IFNg	1.185	−5.215	3.345	−0.225	4.57	−0.175	1.165	−3.915	more surface expression of PD-1	more surface expression of PD-L2	more surface expression of PD-L1	TNFα synthesis as compared to control (enriched CD4 cells): stimulate TNFα synthesis; immunogenicity reflected by TNFα (enriched CD4 cells; [4]): increased TNFα and IFNg; proliferation, counts per minute [1, 5]: 15,572 cpm; stimulation index ([1]; FIG. 1): 45.8; immunogenicity reflected by IFNg (CD4+ T cell effectors; [4]): increased TNFα and IFNg; expression of IL-2 as compared to no peptide (enriched CD4+ cells): stimulate expression of IL-2; expression of IL-2 in CD4+ cells (enriched CD4+ cells): 15.13%
AGILARNLVPMVATV [6DR, human CMV pp65-derived class II peptide, Human (DRB1)]	–	–	–	–	–	–	–	–	3.845	0.275	5.05	0.305	–	–	–	more surface expression of PD-L2	more surface expression of PD-L1	–
HVRVSQPSLILVSQY [3DR, human CMV pp65-derived class II peptide, Human (DRB1)]	greater than in a healthy CMV+ subject	peptide-specific TNFα and IFNg stimulation	increased TNFα and IFNg	greater than in a healthy CMV+ subject	peptide-specific TNFα and IFNg stimulation	increased TNFα and IFNg	5.635	−0.765	4.08	0.51	5.995	1.25	2.545	−2.535	more surface expression of PD-1	–	–	expression of TNFα in CD4 cells (enriched CD4 cells; donor not given): 34.58%; stimulation index ([1]; first of two CMV+ healthy donors (FIG. 3)): 83.05; proliferation, counts per minute ([1]; first of two CMV+ healthy donors (FIG. 3; presumably Donor SA005)): 30,231.67 cpm; stimulation index ([1]; second of two CMV+ healthy donors (FIG. 3)): 147.03; proliferation, counts per minute ([1]; second of two CMV+ healthy donors (FIG. 3; presumably Donor SA006)): 49,648.33 cpm; functional response (proliferation data) ([1]; summary in words): leads to a functional response
